Publication PMC12254266, “Multicolored sequential resonance energy transfer for detection of simultaneous ligand binding at G protein-coupled receptors” (Nature Communications, 2025)
Values joined by “and” are separate entries in the source; they are usually repeats but may differ in a detail not shown here. Equal entries are not always repeated.

Assays:
FFA1-Nluc [1] = target: T1, FFA1-Nluc (Homo sapiens, UniProt O14842); assay: DISCo-BRET (endpoint, spectra scan, kinetics) with TUG-2591 and TUG-2597 at C terminal Nluc tagged FFA1; type: binding; parameters: expressed in transfected cells; conditions: for Specific BRET (690/540), % of control: Figure 4Aiii; for Specific BRET (690/540), % of control / Specific BRET (540/450), % of control: single replicate values (technical duplicate); for Specific BRET (540/450), % of control: Figure 4Biii
Procedure, shortened: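 Flp-In T-REx 293 cells expressing Nluc-tagged FFA1 were induced with 100 ng/mL doxycycline for 24 h, then given Nano-Glo (1:800 final). Endpoint and spectral reads were taken 5 min after ligand at 37 °C; kinetics were read at 25 °C with sequential ligand additions. BRET ratios were taken from Nluc, NBD and SulfoCy5 emissions.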

FFA1-Nluc [2] = target: T1, FFA1-Nluc; assay: Ca2+ mobilisation antagonism of FFA1 agonists (TUG-905, T360) in Flp-In T-REx 293 cells expressing FFA1-Nluc; type: cell-based; parameters: expressed in transfected cells
Description: Nluc-FFA1, FFA1-Nluc or untagged FFA1 Flp-In T-REx 293 cells were plated at 50,000 cells per well in poly-D-lysine coated black clear bottom 96-well plates. Cells were then cultured for 24 h until reaching confluency before culture medium was replaced with medium containing 100 ng/mL of doxycycline to induce receptor expression. Cells were cultured for a further 24 h before the assay. On the day of the assay culture medium was removed and replaced with medium containing 3 μM Fura2-AM Ca^2+ dye. […] Fura2 fluorescent emission at 520 nm following excitation with each of 340 and 380 nm was measured in regular intervals both before and after adding test compounds for a total of 90 s per well. Calcium responses were determined by taking the peak 340/380 ratio after first subtracting the ratios obtained prior to addition of test compound. […]
Ca2+ mobilization responses were measured in
Flp-In T-REx 293 cells expressing FFA1-Nluc. Ca2+ responses to increasing concentrations
pre-treated with 10 μM PPTQ. The mode of antagonism for PPTQ was assessed by
N=3 (A-D, F, H) or N=4 (E, G) independent experiments. S ource data are provided as a […]

T1 sequence (O14842 whole entry): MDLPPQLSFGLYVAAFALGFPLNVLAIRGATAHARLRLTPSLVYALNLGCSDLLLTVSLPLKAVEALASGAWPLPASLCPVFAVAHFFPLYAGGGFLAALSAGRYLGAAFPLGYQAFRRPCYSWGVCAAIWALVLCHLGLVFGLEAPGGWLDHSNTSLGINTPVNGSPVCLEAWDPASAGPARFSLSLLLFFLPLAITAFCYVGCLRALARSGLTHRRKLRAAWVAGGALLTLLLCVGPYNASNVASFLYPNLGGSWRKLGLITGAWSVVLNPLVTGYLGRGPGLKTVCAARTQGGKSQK

pIC50 DISCo-BRET SulfoCy5/NBD (FFA1-Nluc [1]; 100 nM TUG-2591 and […] TUG-2597, one site model, NC = No competition): 6.0±0.06
'bottom' of the IC50 curve, DISCo-BRET SulfoCy5/NBD (FFA1-Nluc [1]; percentage of binding obtained in the absence of competing ligand, 100 nM TUG-2591 and […] TUG-2597): -15%
pKi DISCo-BRET SulfoCy5/NBD (FFA1-Nluc [1]; using Kd TUG-2591 57 nM): 6.4±0.06
antagonism of site one agonist (TUG-905) Ca2+ response (FFA1-Nluc [2]; in words): inhibits signalling from site one
SMILES: CCCN1C(=O)c2ccccc2[C@@H](C(=O)O)[C@@H]1c1ccc(OCc2cccc(-c3ccc(OCCCS(C)(=O)=O)cc3C)c2)cc1 (racemic) [TUG-2745]
Specific BRET (690/540), % of control (FFA1-Nluc [1]; log[Ligand] -5): 0.92 % of control and 2.39 % of control and -9.90 % of control and -8.10 % of control and -2.12 % of control and -2.60 % of control and -5.52 % of control and -2.17 % of control
Specific BRET (540/450), % of control (FFA1-Nluc [1]; log[Ligand] -5): 155.62 % of control and 107.52 % of control and 117.08 % of control and 99.92 % of control and 108.86 % of control and 92.88 % of control and 108.34 % of control
Specific BRET (690/540), % of control (FFA1-Nluc [1]; log[Ligand] -5.5): 19.71 % of control and 24.68 % of control and 5.40 % of control and 1.46 % of control and 18.78 % of control and 3.37 % of control and 12.72 % of control and 3.96 % of control
Specific BRET (540/450), % of control (FFA1-Nluc [1]; log[Ligand] -5.5): 128.42 % of control and 65.71 % of control and 109.72 % of control and 87.17 % of control and 104.75 % of control and 74.68 % of control and 117.49 % of control
Specific BRET (690/540), % of control (FFA1-Nluc [1]; log[Ligand] -6): 43.09 % of control and 64.83 % of control and 36.45 % of control and 38.47 % of control and 45.84 % of control and 53.64 % of control and 35.79 % of control and 29.99 % of control
Specific BRET (540/450), % of control (FFA1-Nluc [1]; log[Ligand] -6): 103.22 % of control and 89.76 % of control and 90.60 % of control and 69.85 % of control and 83.23 % of control and 146.81 % of control
Specific BRET (690/540), % of control (FFA1-Nluc [1]; log[Ligand] -6.5): 78.64 % of control and 74.49 % of control and 82.00 % of control and 53.43 % of control and 70.00 % of control and 66.92 % of control and 69.40 % of control and 69.25 % of control
Specific BRET (540/450), % of control (FFA1-Nluc [1]; log[Ligand] -6.5): 86.61 % of control and 51.40 % of control and 85.70 % of control and 71.65 % of control and 68.99 % of control
Specific BRET (690/540), % of control (FFA1-Nluc [1]; log[Ligand] -7): 89.69 % of control and 92.82 % of control and 101.91 % of control and 88.41 % of control and 100.24 % of control and 95.91 % of control and 89.88 % of control and 95.21 % of control
Specific BRET (540/450), % of control (FFA1-Nluc [1]; log[Ligand] -7): 100.64 % of control and 40.23 % of control and 87.50 % of control and 76.88 % of control and 80.22 % of control and 64.08 % of control and 139.58 % of control
Specific BRET (690/540), % of control (FFA1-Nluc [1]; log[Ligand] -8): 95.21 % of control and 98.62 % of control and 92.91 % of control and 107.54 % of control and 94.56 % of control and 87.72 % of control and 98.50 % of control and 104.07 % of control
Specific BRET (540/450), % of control (FFA1-Nluc [1]; log[Ligand] -8): 82.89 % of control and 76.59 % of control and 92.89 % of control and 70.83 % of control and 83.23 % of control and 65.66 % of control and 122.27 % of control
Specific BRET (690/540), % of control (FFA1-Nluc [1]; log[Ligand] -9): 101.38 % of control and 98.62 % of control and 102.14 % of control and 95.05 % of control and 103.71 % of control and 93.98 % of control
Specific BRET (540/450), % of control (FFA1-Nluc [1]; log[Ligand] -9): 57.41 % of control and 46.53 % of control and 87.83 % of control and 70.67 % of control and 68.35 % of control and 75.16 % of control and 107.46 % of control
Ca2% Response (%) (FFA1-Nluc [2]; response to log[T360] -5 in presence of TUG-2745, Sup Fig 6H): 90.24% and 94.14% and 97.83% and 85.85% and 108.28% and 87.68%
Ca2% Response (%) (FFA1-Nluc [2]; response to log[T360] -6 in presence of TUG-2745, Sup Fig 6H): 106.53% and 104.17% and 101.28% and 97.48% and 114.91% and 110.38%
Ca2% Response (%) (FFA1-Nluc [2]; response to log[T360] -8 in presence of TUG-2745, Sup Fig 6H): 5.16% and 2.24% and -0.89% and 3.26% and 3.57% and -0.49%
Ca2% Response (%) (FFA1-Nluc [2]; response to log[T360] -9 in presence of TUG-2745, Sup Fig 6H): -1.82% and 2.64% and 1.16% and 1.84% and 0.35% and 1.32%
Ca2% Response (%) (FFA1-Nluc [2]; response to log[T360] -10 in presence of TUG-2745, Sup Fig 6H): -0.06% and 1.71% and 3.56% and 4.07% and 1.54% and 0.19%
Ca2% Response (%) (FFA1-Nluc [2]; response to log[T360] -11 in presence of TUG-2745, Sup Fig 6H): 2.74% and 2.14% and 3.49% and 1.57% and 6.13% and -0.07%
Ca2% Response (%) (FFA1-Nluc [2]; response to log[TUG-905] -5 in presence of TUG-2745, Sup Fig 6G): 59.62% and 66.91% and 76.48% and 82.73% and 94.09% and 86.41%
